Entries after “also recorded” stand apart in the source; their conditions may differ. Like-named read-outs stand apart in the source and are kept apart here.
Experiments:
[1] = system: ovariectomized rats with osteoporosis; assay: Test II: dry femur weight, ash weight and calcium content in ovariectomized rats; conditions: for ash weight: model-control 282.3 ± 30.5; for calcium content: model-control 341.9 ± 43.9; for dry femur weight: model-control 493.4 ± 28.1
Method: Female rats at the age of 3 months were excised of bilateral ovaries under sterilized condition, and were then fed low-calcium diet and offered with deionized water for 75 days, thus made an osteoporosis model.
Female 3-month-aged rats which had been excised of bilateral ovaries under sterilized condition were fed for a week until their wound was cured. Seventy healthy rats were selected and divided randomly into five groups of 14 rats. […] Group 1-5 were administered one time per day and 6 times per week and were also fed low-calcium diet and de-ionized water. The test period was 75 days. […] The bilateral femurs of rats were stripped off and stored in refrigerator. […] The right femur was stored for analysis of Ca content in femur.
After pulled off soft tissue, the right femur was dried for 5 hours in oven at the temperature of 120° C. until its weight kept a constant (dry weight), then the product was baked for 6 hours in muffle furnace at the temperature of 800° C. until the weight of the product kept a constant which was the ash weight, namely the total amount of inorganic salts. After part of the ash was resolved in dilute hydrochloride, the calcium content of ash was measured by the method of EDTA titration. All data was expressed as X±SD(n). The significance of differences between groups were assessed using the "T-test" method of two groups of small specimen.

preschool children = conditions: for children having normal BMDs: groups I and II
Method: Seventy 3-6 years old healthy children whose bone mineral density were medium-lower at a central kindergarten in the suburban county of Beijing were selected as subjects, wherein there are 13 boys and 57 girls. All were healthy children who didn't have any metabolic diseases, liver or kidney diseases, bone wounds and abnormal diseases.
Double blind method was employed during the observation. Every person was administered calcium preparation or placebo twice a day in a dosage of 1 bag each time. […] Group IV, established as blank-control group, was administered placebo which didn't contain calcium. All the above oral preparations were provided by Beijing Juneng Asian-Pacific Life Science Research Center.
(1) Bone mineral density was measured before the test and 1.5 months and 3 months later after the administration of Ca supplements.
The bone mineral density of radius in non-preferred hand was measured at the 1/3 point near the farther-end by a Model BMD400 Single-Photon absorptiometry produced conjointly by Institute of Atomic Energy, Ministry of Nuclear Industry, China and Institute of Broadcasting, Beijing, to obtain mean mineral bone density (BMD, g/cm^2). Each point was scanned twice with a scanning speed of 0.5 mm/sec.
All data was analyzed with a SAS statistical software package.

ovariectomized rats = conditions: for serum Ca / serum P / serum Tr-ACP (in Bessey-Loury unit) / serum AKP (in Bessey-Loury unit): 75 days; for serum Ca: model-control 1.40 ± 0.72; for serum P: model-control 1.91 ± 0.34; for serum Tr-ACP (in Bessey-Loury unit): model-control 8.4 ± 2.8; for serum AKP (in Bessey-Loury unit): model-control 50.3 ± 15
Method: (3) Pure synthetic low-calcium diet was formulated by mixing 40% fine wheat flour, 40% maize flour, 10% tyroprotein, 5% peanut oil, 3% AIN-76 mixed salts, 1% AIN-76 mixed vitamins, 1% cellulose and 0.3% DL-methionine, in which the calcium salt in AIN-76 mixed salts was replaced by glucose, and this preparation contains 64 mg calcium/100 g.
The test period was 75 days.
Serum Ca, P and AKP were measured by a 4010 Automatic Biochemical Analyzer. Serum Ca was determined by calorimetric method using methylthymol blue. Serum P was determined by Mono-Reagent Method. Alkaline phosphatase was determined by method of disodium p-nitrophenylphosphonate (AKP) The tartaric-resistant acidic phosphatase (Tr-ACP) mineral was determined by Piedra procedure. All above reagent-box were available from the Clinical Chemicals Sub-plant of Beijing Chemical Plant.

rickets-mice [2] = assay: Preventing rickets in younger mice: body weight, dry weight, ash weight and total calcium content of femur; format: in vivo, mice of Kunming species; conditions: for dry weight of femur: model 0.099 ± 0.014; for total calcium content: model 24.81 ± 4.36; for ash weight: model 46.62 ± 9.38
Method: (§1) The mice were bred for 60 days under conditions of avoiding light around-the-clock, at a temperature of 20-25° C. and a relative humility of 40-60% while the normal-control group mice were fed ordinary diet and water and were placed in non-dark room.
(§2) The low-calcium diet used in this test was the same as that in Test II but VD in the vitamin mixture was replaced by glucose.
(§3) Some weanling mice were placed in dark room and fed VD -deficient low-calcium diet and drunk de-ionized water for 60 days, thus a ricket model of baby mice was prepared. While other weanling mice were placed in non-dark room and fed ordinary diet and drunk tap water for 60 days, these mice were established as normal-control group.

rickets-mice [3] = assay: Preventing rickets in younger mice: serum Ca, AKP, P; format: in vivo, mice of Kunming species; conditions: for serum Ca / serum P / serum AKP (in Bessey-Loury unit): 60 days; for serum Ca: model 1.55 ± 0.42; for serum P: model 2.23 ± 0.52; for serum AKP (in Bessey-Loury unit): model 101 ± 34
Method: as §1, §2, §3

in vivo = conditions: dog, po, 200 mg/kg
[4] = system: ovariectomized rats with osteoporosis; assay: Test II: bone mineral density of femur in ovariectomized rats; conditions: for bone density F50: center of femur; for bone density F20: proximal position 20%, model-control 0.256 ± 0.022
Method: Female 3-month-aged rats which had been excised of bilateral ovaries under sterilized condition were fed for a week until their wound was cured. Seventy healthy rats were selected and divided randomly into five groups of 14 rats. […] Group 1-5 were administered one time per day and 6 times per week and were also fed low-calcium diet and de-ionized water. The test period was 75 days. […] The bilateral femurs of rats were stripped off and stored in refrigerator. After the measurement of the bone mineral density, the left femur was stored for analysis of biomechanical characteristics.
(4) Measurement of bone mineral density. Fresh femur iced in refrigerator was measured of bone mineral content at the center (F50) and the proximal position 20% (F20) of femur by single photon absorptiometry (Model BMD400GI) with a scanning speed of 0.25 mm/s and a precision degree of 99%, the Apparatus was proofread using a standard apparatus provided by Jishuitan Hospital, Beijing. The data was processed by software used clinically. The bone mineral content was expressed by a unit of bone mineral content per square centimeter (BMC/cm^2).

[5] = system: castrated male rats with osteoporosis; conditions: for K (calcification of bone): model-control 1.50 ± 0.26; for P (strength of femur): model-control 5.2 ± 1.1; for Y (flexibility, tenacity): model-control 8.0 ± 1.2; for S (work to break the bone): model-control 24.5 ± 7.5
Method: Three-point bending test was done on the fresh femur iced in refrigerator with a Model WD-1 Electron Universal Test Machine under the following conditions: a span of 2.5 cm, a 25 kg sensor (1/50), a speed of 2 mm/minute. The function of load versus flexibility was recorded by a finction recorder, wherein P represented the maximum of force at yielding point, Y was flexibility indicating the tenacity of materials. K, as the rate of slope, was a rigidity parameter of materials and was associated with the degree of calcification in bone mechanics. S stood for the work to yield or break femur.
In this test, chemicals were the saine as in test II, animals were male Wistar rats each weighing 150±10 g and were provided by Animal Center of the National Institute for the Identification of Pharmaceuticals and Biological Products, Beijing. The breeding of the rats was the same as in test II.
The male rats each weighing 150±10 g were excised of bilateral spermaries and were fed low-calcium diet and offered deionized water for 60 days, thus made a model of osteoporosis.
Seventy of the castrated male rats were divided into groups and tested in the same manner as Test II but the days of administration were 52 days during the 60 days of test.
In this test, the measuring methods for serum Ca, P, AKP levels, the bone mineral density, the length of femur, wet weight, dry weight, ash weight, the calcium content and the biomechanics of femur were all the same as in test II.

O=C(O)[C@H](O)[C@@H](O)CO [calcium L-threonate]
ash weight ([1]; 100 mg element calcium/kg/d): 308.5 ± 11.4 mg | calcium content ([1]; 100 mg element calcium/kg/d): 387.8 ± 91.9 mg/g dry weight | dry femur weight ([1]; 100 mg element calcium/kg/d): 517 ± 21.8 mg | ash weight ([1]; 200 mg element calcium/kg/d): 325.3 ± 23.5 mg | calcium content ([1]; 200 mg element calcium/kg/d): 455.1 mg/g dry weight | dry femur weight ([1]; 200 mg element calcium/kg/d): 553.0 ± 38.1 mg | ash weight ([1]; 300 mg element calcium/kg/d): 332.4 ± 13.0 mg | calcium content ([1]; 300 mg element calcium/kg/d): 445.7 mg/g dry weight | dry femur weight ([1]; 300 mg element calcium/kg/d): 546.6 ± 22.8 mg | loss of bone matrix (in words) ([1]; rat, in vivo): retard the loss of bone matrix; also recorded: markedly control and inhibit the loss of bone matrix | bone mineral density (preschool children; 2 bags/day of 150 mg element calcium, 1.5 month, before test 0.379 (threonate), 0.369 (carbonate)): 0.424 ± 0.038 g/cm^2 | extent of BMDs' increase (preschool children; 2 bags/day of 150 mg element calcium, 1.5 months): 11.87% | bone mineral density (preschool children; 2 bags/day of 150 mg element calcium, 3 month, before test 0.379 (threonate), 0.369 (carbonate)): 0.467 ± 0.027 g/cm^2 | bone mineral density (preschool children; 2 bags/day of 200 mg element calcium, 1.5 month, before test 0.362 ± 0.026): 0.414 ± 0.027 g/cm^2 | extent of BMDs' increase (preschool children; 2 bags/day of 200 mg element calcium, 1.5 months): 14.36% | bone mineral density (preschool children; 2 bags/day of 200 mg element calcium, 3 month, before test 0.362 ± 0.026): 0.460 ± 0.020 g/cm^2 | extent of BMDs' increase (preschool children; 2 bags/day of 200 mg element calcium, 3 months): 25.41% | fraction of children whose BMD reached the normal level (preschool children; after 3 months): about 2/3 | children having normal BMDs (preschool children; 1.5 months): about 12% | children having normal BMDs (preschool children; 3 months): ~72% | serum Ca (ovariectomized rats; 100 mg element calcium/kg/d): 1.60 ± 0.75 mmol/L | serum P (ovariectomized rats; 100 mg element calcium/kg/d): 2.08 ± 0.66 mmol/L | serum Tr-ACP (in Bessey-Loury unit) (ovariectomized rats; 100 mg element calcium/kg/d): 8.8 ± 1.8 U/L | serum AKP (in Bessey-Loury unit) (ovariectomized rats; 100 mg element calcium/kg/d): 48.7 ± 8.0 U/L | serum Ca (ovariectomized rats; 200 mg element calcium/kg/d): 2.35 ± 0.35 mmol/L | serum P (ovariectomized rats; 200 mg element calcium/kg/d): 1.87 ± 0.58 mmol/L | serum Tr-ACP (in Bessey-Loury unit) (ovariectomized rats; 200 mg element calcium/kg/d): 7.9 ± 2.4 U/L | serum AKP (in Bessey-Loury unit) (ovariectomized rats; 200 mg element calcium/kg/d): 41.4 ± 14 U/L | serum Ca (ovariectomized rats; 300 mg element calcium/kg/d): 2.30 ± 0.75 mmol/L | serum P (ovariectomized rats; 300 mg element calcium/kg/d): 1.88 ± 0.58 mmol/L | serum Tr-ACP (in Bessey-Loury unit) (ovariectomized rats; 300 mg element calcium/kg/d): 7.2 ± 2.1 U/L | serum AKP (in Bessey-Loury unit) (ovariectomized rats; 300 mg element calcium/kg/d): 38.2 ± 10 U/L | AKP and Tr-ACP effect (in words) (ovariectomized rats; chronic feeding): might decrease the AKP and Tr-ACP levels in serum | serum Ca effect (in words) (ovariectomized rats; long-time feeding): markedly raise the serum calcium level | blood P effect (in words) (ovariectomized rats; rat, in vivo): no evidence | dry weight of femur (rickets-mice [2]; 200 mg calcium element): 0.121 ± 0.010 g | total calcium content (rickets-mice [2]; 200 mg calcium element): 36.23 mg | ash weight (rickets-mice [2]; 200 mg calcium element): 69.44 ± 6.62 mg | dry weight of femur (rickets-mice [2]; 300 mg calcium element): 0.131 ± 0.013 g | total calcium content (rickets-mice [2]; 300 mg calcium element): 38.90 ± 13.78 mg | ash weight (rickets-mice [2]; 300 mg calcium element): 74.73 ± 12.31 mg | Ca deposited in femur versus calcium gluconate (in words) (rickets-mice [2]; P<0.05): much higher than that of calcium gluconate | dry femur weight, ash weight and total calcium content (in words) (rickets-mice [2]; high and low dosage): markedly higher than those of the model group and were approximate to those of the normal-control group | serum Ca (rickets-mice [3]; 200 mg calcium element): 2.33 ± 0.82 mmol/L | serum P (rickets-mice [3]; 200 mg calcium element): 1.52 ± 0.45 mmol/L | serum AKP (in Bessey-Loury unit) (rickets-mice [3]; 200 mg calcium element): 59.3 ± 14 U/L | serum Ca (rickets-mice [3]; 300 mg calcium element): 2.17 ± 0.82 mmol/L | serum P (rickets-mice [3]; 300 mg calcium element): 1.35 ± 0.34 mmol/L | serum AKP (in Bessey-Loury unit) (rickets-mice [3]; 300 mg calcium element): 43.1 ± 14 U/L | serum Ca effect (in words) (rickets-mice [3]; high and low dosage): approximate to that of the normal-control group but were much higher than those of the model group | serum AKP effect (in words) (rickets-mice [3]; mouse, in vivo): much lower than those of the model group | Tmax (in vivo): 1.21 h | concentration at 0.5 h (in vivo): 23100 ± 2680 ng/mL | concentration at 1 h (in vivo): 35900 ± 4410 ng/mL | concentration at 2 h (in vivo): 74040 ± 500 ng/mL | concentration at 3 h (in vivo): 46000 ng/mL | concentration at 4 h (in vivo): 17200 ng/mL | concentration at 6 h (in vivo): 9990 ng/mL | concentration at 8 h (in vivo): 4660 ng/mL | concentration at 12 h (in vivo): 2800 ng/mL | concentration at 16 h (in vivo): 4300 ng/mL | concentration at 24 h (in vivo): 3990 ng/mL | half-life (in vivo): 3.57 h | bone density F50 ([4]; 100 mg element calcium/kg/d): 0.289 ± 0.021 BMC/BW | bone density F20 ([4]; 100 mg element calcium/kg/d): 0.288 ± 0.021 BMC/BW | bone density F50 ([4]; 200 mg element calcium/kg/d): 0.282 ± 0.020 BMC/BW | bone density F20 ([4]; 200 mg element calcium/kg/d): 0.315 ± 0.032 BMC/BW | bone density F20 ([4]; 300 mg element calcium/kg/d): 0.314 ± 0.020 BMC/BW | bone density effect (in words) ([4]; versus model-control group): markedly higher than that of model-control group rats | K (calcification of bone) ([5]; 100 mg element calcium/kg/d): 2.05 ± 0.25 | P (strength of femur) ([5]; 100 mg element calcium/kg/d): 7.6 ± 1.1 | Y (flexibility, tenacity) ([5]; 100 mg element calcium/kg/d): 7.3 ± 1.6 | S (work to break the bone) ([5]; 100 mg element calcium/kg/d): 29.7 | K (calcification of bone) ([5]; 200 mg element calcium/kg/d): 2.27 ± 0.42 | P (strength of femur) ([5]; 200 mg element calcium/kg/d): 8.7 ± 1.2 | Y (flexibility, tenacity) ([5]; 200 mg element calcium/kg/d): 6.6 ± 1.1 | S (work to break the bone) ([5]; 200 mg element calcium/kg/d): 28.3 | K (calcification of bone) ([5]; 300 mg element calcium/kg/d): 2.52 ± 0.22 | P (strength of femur) ([5]; 300 mg element calcium/kg/d): 9.3 ± 0.9 | Y (flexibility, tenacity) ([5]; 300 mg element calcium/kg/d): 6.3 ± 1.0 | S (work to break the bone) ([5]; 300 mg element calcium/kg/d): 28.7 ± 7.8 | P,K,S values (in words) ([5]; rat, in vivo): markedly increased in contrast to those of the model group rats

— patent publication US6077872A (priority 1998, dated 2000)
